# Data from patent EP4806911A1, “TRIPLE AGONIST COMPOUND” (Chengdu Aoda Biotechnology Co., Ltd, priority 2023, dated 2025).
# Test: Preliminary pharmacokinetic characteristic evaluation
# Format: in vivo, cynomolgus monkeys
# Details: for half-life: cynomolgus monkey, sc, male cynomolgus monkeys, administered subcutaneously at 0.2 mg/kg, plasma, LC-MS; for half-lives: cynomolgus monkeys, administered subcutaneously
# Protocol: Among the above compounds, the principle of modification for long-acting was essentially the same.
# The test animals were male cynomolgus monkeys. Two animals were used for each compound. The compounds were administered subcutaneously at a dose of 0.2 mg/kg. Blood samples were collected via intravenous sampling prior to administration (0 h) and at 1 h, 2 h, 3 h, 4 h, 8 h, 12 h, 18 h, 24 h, 48 h, 96 h, 144 h, and 168 h after administration. Plasma samples were obtained by centrifugation. The plasma concentrations of the compounds were respectively determined by liquid chromatography - mass spectrometry (LC-MS).
Structure (SMILES),half-life [h],half-lives
CC[C@H](C)[C@H](NC(=O)[C@H](Cc1ccccc1)NC(=O)[C@H](C)NC(=O)C(C)(C)NC(=O)[C@H](CCC(N)=O)NC(=O)[C@H](C)NC(=O)[C@H](CCCCNC(=O)COCCOCCNC(=O)CCC[C@H](NC(=O)CCCCCCCCCCCCCCCCCCC(=O)O)C(=O)O)NC(=O)[C@H](CCCCN)NC(=O)[C@H](CC(=O)O)NC(=O)[C@H](CC(C)C)NC(=O)C(C)(CC(C)C)NC(=O)[C@@H](NC(=O)[C@H](CO)NC(=O)[C@H](Cc1ccc(O)cc1)NC(=O)[C@H](CC(=O)O)NC(=O)[C@H](CO)NC(=O)[C@@H](NC(=O)C(C)(Cc1ccccc1)NC(=O)[C@@H](NC(=O)CNC(=O)[C@H](CCC(N)=O)NC(=O)C(C)(C)NC(=O)[C@@H](N)Cc1ccc(O)cc1)[C@@H](C)O)[C@@H](C)O)[C@@H](C)CC)C(=O)N[C@@H](CCC(=O)O)C(=O)N[C@@H](Cc1ccc(O)cc1)C(=O)N[C@@H](CC(C)C)C(=O)N[C@@H](CC(C)C)C(=O)N[C@@H](CCC(=O)O)C(=O)NCC(=O)NCC(=O)N1CCC[C@H]1C(=O)N[C@@H](CO)C(=O)N[C@@H](CO)C(=O)NCC(=O)N[C@@H](C)C(=O)N1CCC[C@H]1C(=O)N1CCC[C@H]1C(=O)N1CCC[C@H]1C(=O)N[C@@H](CO)C(N)=O (stereo partly shown) [Compound 2],83.5,greater than 80 hours
CC[C@H](C)[C@H](NC(=O)[C@H](Cc1ccccc1)NC(=O)[C@H](C)NC(=O)C(C)(C)NC(=O)[C@H](CCC(N)=O)NC(=O)[C@H](C)NC(=O)[C@H](CCCCNC(=O)COCCOCCNC(=O)CCC[C@H](NC(=O)CCCCCCCCCCCCCCCCCCC(=O)O)C(=O)O)NC(=O)[C@H](CCCCN)NC(=O)[C@H](CC(=O)O)NC(=O)[C@H](CC(C)C)NC(=O)C(C)(CC(C)C)NC(=O)[C@@H](NC(=O)[C@H](CO)NC(=O)[C@H](Cc1ccc(O)cc1)NC(=O)[C@H](CC(=O)O)NC(=O)[C@H](CO)NC(=O)[C@@H](NC(=O)C(C)(Cc1ccccc1F)NC(=O)[C@@H](NC(=O)CNC(=O)[C@H](CCC(N)=O)NC(=O)C(C)(C)NC(=O)[C@@H](N)Cc1ccc(O)cc1)[C@@H](C)O)[C@@H](C)O)[C@@H](C)CC)C(=O)N[C@@H](CCC(=O)O)C(=O)N[C@@H](Cc1ccc(O)cc1)C(=O)N[C@@H](CC(C)C)C(=O)N[C@@H](CC(C)C)C(=O)N[C@@H](CCC(=O)O)C(=O)NCC(=O)NCC(=O)N1CCC[C@H]1C(=O)N[C@@H](CO)C(=O)N[C@@H](CO)C(=O)NCC(=O)N[C@@H](C)C(=O)N1CCC[C@H]1C(=O)N1CCC[C@H]1C(=O)N1CCC[C@H]1C(=O)N[C@@H](CO)C(N)=O (stereo partly shown) [Compound 6],94.7,greater than 80 hours
